Measured values published in patent EP1149092B1, “4- AND 5-ALKYNYLOXINDOLES AND 4- AND 5-ALKENYLOXINDOLES” (F. HOFFMANN-LA ROCHE AG, priority 1998, dated 2000).

How the values were obtained:
[1] = biological target: rat SAPK (isoform β) (Rattus norvegicus, UniProt P49187); experiment: SAPK FlashPlate Assay (inhibition of cJun phosphorylation); type: biochemical; conditions: GST-cJun substrate, 30 minutes at 37 °C
Procedure: "IC50" refers to the concentration of a particular 4- or 5-alkynyloxindole or 4-or 5-alkenyloxindole required to inhibit 50% of cJun phosphorylation, which is a measure of inhibition of SAPK activity. IC50 can be measured, inter alia, using the assay described herein in Example 102.
Human JNK is highly homologous to rat SAPK. To measure the inhibitory activity of test compounds, the compounds were tested in the rat SAPK assay.
For the SAPK assay, purified GST-cJun (a chimeric protein containing cJun, a natural substrate of JNK) was coated on 96 well FlashPlates (New England Nuclear, Boston, MA). Purified rat SAPK (isoform β, Kyriakis et al. supra) was preincubated with preparations containing MEKK-1 and MKK4 for 30 minutes at 37 °C in assay buffer containing 25 mM HEPES, pH 7.5, 150 mM NaCl, 20 mM MgCl2, 2 mM DTT, 0.001% Tween 20, 1 µM ATP freshly added. In the preincubation step, MEKK-1 phosphorylates and activates MKK-4, which in tum phosphorylates and activates SAPK. The activated SAPK was then added to the cJun coated FlashPlates along with ^33P-ATP (0.32 µCi per reaction) and test compounds. The plates were incubated for 30 minutes at 37 °C, then washed with PBS, 0.01% Tween 20, and counted in the Topcount scintillation counter (Packard Instrument Co., Downers Grove, IL). Dilutions of compounds were tested in duplicate in each assay. The percent inhibition of cJun phosphorylation (a measure of inhibition of SAPK activity) was determined by the following formula: [formula] where "test compound" refers to the average counts per minute of the test duplicates, "nonspecific" refers to the average counts per minute when no SAPK was added, and "total" refers to the average counts per minute when no compound was added.

[2] = system: MMP-3; experiment: MG-63 Cell-Based Assay, MMP-3 release after IL-1β stimulation (ELISA); conditions: Homo sapiens, MG63 cells, IL-1β stimulated, 24 hours with compound, read-out: IC50 (µM) in MG63 Cells MMP3
From the text: (§1) The MG63 cell line, a human osteosarcoma cell line, was purchased from American Type Culture Collection (ATCC; Rockville, MD) and grown in the medium recommended by ATCC. When stimulated with human IL-1β , MG63 cells release matrix metalloproteinase 3 (MMP-3), an AP-1 dependent inflammatory mediator and IL-6, a NF-κB-dependent mediator. In this assay the ability of a test compound to block MMP-3 expression and not block IL-6 expression is an indication that the compound is a selective inhibitor of the AP-1 transcription pathway.
(§2) On day 1 the cells were plated at 2.5X10^4 cells/well in 96 well plates. After 24 hours, dexamethasone (the assay control) (Sigma, St. Louis, MO) and the test compounds were diluted to appropriate concentrations and added to the MG63 cells. The cells were incubated with the compounds for 24 hours after which the supernatants were removed and analyzed by ELISA.
(§3) In the ELISA, 96 well plates were coated with antibody to MMP-3 or IL-6. Supernatants were added to the coated plates and any antigen (MMP-3 or IL-6) in the supernatant bound to the antibody coated on the plates. The plates were then washed with PBS containing 0.05% Tween 20 (Sigma, St. Louis, MO) and the biotinylated secondary antibody was added. This secondary antibody binds to the already bound antigen creating a "sandwich effect". Plates were washed as described above and horseradish peroxidase (HRP)-streptavidin conjugate (Sigma, St. Louis, MO) was added to the plates. HRP-streptavidin bound to the biotin-antibody conjugate. The plates were washed and TMB substrate (Kirkegaard and Perry Labs, Gaithersburg, MD) was added to the wells. This substrate changes color in the presence of HRP-streptavidin. The intensity of the color (measured at 450 nm) is proportional to the amount of MMP-3 or IL-6 produced by the MG63 cells upon exposure to IL-1β and the test compounds. Optical density values were converted to concentration (pg/ml or Units/ml) based on a standard curve included in the assay. IC50 values for each test compound were determined from the linear regression of a plot of the logarithm of the concentration of compound versus amount of MMP-3 or IL-6 secreted. (The MMP-3 antibodies were prepared in-house using standard hybridoma technology and the IL-6 antibodies were obtained from either Genzyme, Cambridge, MA or Pharmingen, San Diego, CA.).

[3] = system: IL-6; experiment: MG-63 Cell-Based Assay, IL-6 release after IL-1β stimulation (ELISA); conditions: Homo sapiens, MG63 cells, IL-1β stimulated, 24 hours with compound, read-out: IC50 (µM) in MG63 Cells IL6
From the text: as §1, §2, §3

rat SAPK (isoform β), sequence (P49187 whole entry, canonical isoform): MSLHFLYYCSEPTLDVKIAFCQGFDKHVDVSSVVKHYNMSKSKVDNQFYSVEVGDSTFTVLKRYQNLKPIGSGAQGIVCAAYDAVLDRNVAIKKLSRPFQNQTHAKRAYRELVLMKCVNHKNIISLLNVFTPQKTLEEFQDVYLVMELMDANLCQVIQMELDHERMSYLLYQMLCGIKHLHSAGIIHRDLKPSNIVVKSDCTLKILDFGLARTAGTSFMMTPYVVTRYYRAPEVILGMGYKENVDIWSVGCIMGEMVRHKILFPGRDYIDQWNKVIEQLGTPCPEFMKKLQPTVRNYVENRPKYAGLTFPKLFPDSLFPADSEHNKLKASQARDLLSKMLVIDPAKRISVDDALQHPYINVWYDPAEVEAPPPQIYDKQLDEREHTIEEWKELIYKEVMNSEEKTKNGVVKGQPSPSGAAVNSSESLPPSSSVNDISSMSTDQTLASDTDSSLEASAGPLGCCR

Row | IC50 [1] [µM] | IC50 [2] [µM] | IC50 [3] [µM] | Structure (SMILES)
1 | < 1 | < 12.5 | < 20 | COc1cc[nH]c1/C=C1\C(=O)Nc2cccc(C#CC(O)c3cccc(OC)c3OC)c21 (racemic) [EE, rac-(Z)-1,3-Dihydro-4-[3-(2,3-dimethoxyphenyl)-3-hydroxy-1-propynyl]-3-[(3-methoxy-1H-pyrrol-2-yl)methylene]-2H-indol-2-one]
2 | < 1 | < 12.5 | < 20 | COc1cc[nH]c1/C=C1\C(=O)Nc2cccc(C#CC(O)c3ccccc3)c21 (racemic) [FFF, rac-(Z)-1,3-Dihydro-4-(3-hydroxy-3-phenyl-1-propynyl)-3-[(3-methoxy-1H-pyrrol-2-yl)methylene]-2H-indol-2-one]
3 | < 1 | < 12.5 | < 20 | COc1ccc(C(O)C#Cc2cccc3c2/C(=C/c2[nH]ccc2OC)C(=O)N3)cc1 (racemic) [H, rac-(Z)-1,3-Dihydro-4-[3-hydroxy-3-(4-methoxyphenyl)-1-propynyl]-3-[(3-methoxy-1H-pyrrol-2-yl)methylene]-2H-indol-2-one]
4 | < 1 | < 12.5 | > 20 | COc1cc[nH]c1/C=C1\C(=O)Nc2cccc(C#Cc3cccnc3)c21 [CCC, (Z)-1,3-Dihydro-3-[(3-methoxy-1H-pyrrol-2-yl)methylene]-4-[(3-pyridinyl)ethynyl]-2H-indol-2-one]
5 | < 1 | < 12.5 | 20 | COc1cc[nH]c1/C=C1\C(=O)Nc2cccc(C#Cc3ccccc3)c21 [D, (Z)-1,3-Dihydro-4-(phenylethynyl)-3-[(3-methoxy-1H-pyrrol-2-yl)methylene]-2H-indol-2-one]
6 | < 1 | < 12.5 | < 20 | COc1ccc(C#Cc2cccc3c2/C(=C/c2[nH]ccc2OC)C(=O)N3)cc1 [G, (Z)-1,3-Dihydro-4-[(4-methoxyphenyl)ethynyl]-3-[(3-methoxy-1H-pyrrol-2-yl)methylene]-2H-indol-2-one]
7 | – | < 12.5 | < 20 | C#CC(O)c1ccc(OC)c(O)c1 (centres unmarked) [GG, 3-Hydroxy-3-(3-hydroxy-4-methoxyphenyl)-1-propyne]
8 | – | < 12.5 | 20 | COc1cc[nH]c1/C=C1\C(=O)Nc2ccc(NC(=O)Cc3cccs3)c(C#Cc3cccnc3)c21 [III, (Z)-N-[2,3-Dihydro-3-[(3-methoxy-1H-pyrrol-2-yl)methylene]-2-oxo-4-[(3-pyridinyl)ethynyl]-1H-indol-5-yl]-2-thiopheneacetamide]
9 | – | < 12.5 | < 20 | C#CC(O)c1ccc(O)cc1 (centres unmarked) [P, 3-Hydroxy-3-(4-hydroxyphenyl)-1-propyne]
10 | < 1 | < 12.5 | 20 | COc1ccc(/C=C/c2cccc3c2/C(=C/c2[nH]ccc2OC)C(=O)N3)cc1OC [QQQ, 1,3-Dihydro-4-[(E)-2-(3,4-dimethoxyphenyl)-ethenyl]-(Z)-3-[(3-methoxy-1H-pyrrol-2-yl)methylene]-2H-indol-2-one]
11 | < 1 | < 12.5 | < 20 | COc1cc[nH]c1/C=C1\C(=O)Nc2cccc(C#CCOc3ccccc3)c21 [Y, (Z)-1,3-Dihydro-3-[(3-methoxy-1H-pyrrol-2-yl)methylene]-4-(3-phenoxy-1-propynyl)-2H-indol-2-one]
12 | – | < 12.5 | < 20 | C#CC(O)c1cccn1C (centres unmarked) [Z, 3-Hydroxy-3-(1-methyl-pyrrol-2-yl)-1-propyne]
